Measured values taken from DBAASP.
Converted amounts (≈) assume the structure as drawn. “And” between values parts separate entries of the source, which are not always exact repeats. Identical values can stand only once.

Assays:
Experiment in all cases: ≥ marks a high value that may be exact or a test limit, other limits are often not marked, values filed in µg/mL are converted to µM
[1] = system: Escherichia coli ATCC 25922
[2] = system: Klebsiella pneumoniae ATCC 13883
[3] = system: Acinetobacter baumannii ATCC 19606
[4] = system: Pseudomonas aeruginosa ATCC 27853
[5] = system: Staphylococcus aureus ATCC 29213
[6] = system: Pseudomonas aeruginosa ATCC 9027
[7] = system: Staphylococcus aureus ATCC 6538
[8] = system: Staphylococcus aureus NCTC 8325
[9] = system: Staphylococcus aureus ATCC 25923
[10] = system: Pseudomonas aeruginosa PAO1
Escherichia coli UB1005 = system: Escherichia coli UB1005

CC[C@H](C)[C@@H]1NC(=O)[C@H](CO)NC(=O)[C@H](C(C)C)NC(=O)[C@H]([C@@H](C)O)NC(=O)[C@H](Cc2c[nH]c3ccccc23)NC(=O)[C@@H](NC(=O)CNC(=O)[C@H](CCCCN)NC(=O)[C@H](CCCCN)NC(=O)[C@H](C)NC(=O)[C@H](C)N)CSSC[C@@H](C(=O)N[C@@H](Cc2ccccc2)C(N)=O)NC(=O)[C@@H]2CCCN2C(=O)[C@H](CCCCN)NC(=O)[C@@H]2CCCN2C(=O)[C@@H]2CCCN2C1=O [AAKKGCWTVSIPPKPCF]
MIC [1]: 22.6 µM (≈ 41.4 µg/mL)
MIC [2]: 8 µM (≈ 14.6 µg/mL)
MIC [3]: 16 µM (≈ 29.3 µg/mL)
MIC [4]: 32 µM (≈ 58.6 µg/mL)
MIC [5]: 16 µM (≈ 29.3 µg/mL)

CC(C)C[C@H](NC(=O)[C@H](C)NC(=O)[C@H](CCCCN)NC(=O)[C@H](CCCCN)NC(=O)[C@H](CC(C)C)NC(=O)[C@H](C)NC(=O)[C@H](CCCCN)NC(=O)[C@H](CC(C)C)NC(=O)[C@H](C)NC(=O)[C@H](CCCCN)NC(=O)[C@H](CCCCN)NC(=O)[C@H](CC(C)C)NC(=O)[C@H](C)NC(=O)[C@H](CC(C)C)NC(=O)[C@H](C)NC(=O)[C@@H](N)Cc1ccccc1)C(N)=O [FALALKKALKALKKAL]
MIC [6]: 28.9 µM (≈ 50 µg/mL)
MIC [7]: 2.89 µM (≈ 5 µg/mL)

CC[C@H](C)[C@H](NC(=O)[C@H](CCCCN)NC(=O)[C@H](CS)NC(=O)[C@H](Cc1ccccc1)NC(=O)[C@@H](NC(=O)CNC(=O)[C@@H](NC(=O)[C@@H]1CCCN1C(=O)[C@H](Cc1ccccc1)NC(=O)[C@@H](N)Cc1ccccc1)[C@@H](C)CC)C(C)C)C(=O)N[C@@H](Cc1ccccc1)C(=O)N[C@@H](CCCCN)C(=O)N[C@H](C(=O)N[C@@H](CS)C(=O)O)[C@@H](C)O [FFPIGVFCKIFKTC]
MIC [1]: 30 µM (≈ 49.5 µg/mL)
MIC [8]: ≥ 100 µM

CC[C@H](C)[C@H](NC(=O)[C@H](CC(C)C)NC(=O)[C@H](CO)NC(=O)[C@H](C)NC(=O)[C@H](Cc1ccccc1)NC(=O)[C@H](CC(C)C)NC(=O)[C@@H]1CCCN1C(=O)[C@H](CC(C)C)NC(=O)[C@@H](N)Cc1ccccc1)C(=O)NCC(=O)N[C@@H](CCCCN)C(=O)N[C@@H](CC(C)C)C(=O)N[C@@H](CC(C)C)C(N)=O [FLPLFASLIGKLL]
MIC [8]: ≥ 140 µM

CSCC[C@H](NC(=O)[C@H](CC(C)C)NC(=O)[C@H](CO)NC(=O)CNC(=O)[C@H](C)NC(=O)[C@@H](NC(=O)[C@H](CC(N)=O)NC(=O)[C@H](CCCCN)NC(=O)[C@H](CC(C)C)NC(=O)[C@@H](NC(=O)[C@H](CC(N)=O)NC(=O)[C@H](CCCCN)NC(=O)CNC(=O)[C@@H](NC(=O)[C@H](CCCCN)NC(=O)[C@H](CCCCN)NC(=O)[C@H](Cc1ccccc1)NC(=O)[C@H](C)NC(=O)[C@H](CO)NC(=O)[C@H](Cc1ccccc1)NC(=O)[C@H](CC(C)C)NC(=O)CN)C(C)C)C(C)C)C(C)C)C(=O)N[C@@H](CC(=O)O)C(=O)N[C@@H](CC(N)=O)C(=O)N[C@@H](CC(C)C)C(=O)N[C@@H](CCCCN)C(=O)N[C@H]1CSSC[C@@H](C(=O)O)NC(=O)[C@H](CCC(=O)O)NC(=O)CNC(=O)[C@H](CO)NC(=O)[C@H](C(C)C)NC(=O)[C@H](CCCCN)NC1=O [GLFSAFKKVGKNVLKNVAGSLMDNLKCKVSGEC]
MIC [1]: 3 µM (≈ 10.5 µg/mL)
MIC [8]: ≥ 50 µM

CC[C@H](C)[C@H](NC(=O)CNC(=O)[C@H](CCC(N)=O)NC(=O)[C@H](Cc1ccccc1)NC(=O)[C@@H](NC(=O)[C@H](CCCCN)NC(=O)[C@H](CCCCN)NC(=O)[C@H](CC(C)C)NC(=O)[C@H](C)NC(=O)[C@H](CCCCN)NC(=O)[C@H](CC(C)C)NC(=O)CN)C(C)C)C(=O)N[C@@H](Cc1cnc[nH]1)C(=O)N[C@@H](CCC(=O)O)C(=O)N[C@@H](C)C(=O)N[C@H](C(=O)N[C@@H](CCCCN)C(=O)N[C@@H](CC(C)C)C(=O)N[C@H](C(=O)N[C@@H](CC(N)=O)C(=O)N[C@@H](CC(N)=O)C(=O)N[C@@H](Cc1cnc[nH]1)C(=O)N[C@H](C(=O)N[C@@H](CCC(N)=O)C(=O)O)C(C)C)[C@@H](C)CC)[C@@H](C)CC [GLKALKKVFQGIHEAIKLINNHVQ]
MIC [1]: 10 µM (≈ 27 µg/mL)
MIC [8]: ≥ 80 µM

CC[C@H](C)[C@H](NC(=O)CNC(=O)[C@H](CCC(N)=O)NC(=O)[C@H](Cc1ccccc1)NC(=O)[C@@H](NC(=O)[C@H](CCCCN)NC(=O)[C@H](CCCCN)NC(=O)[C@H](CC(C)C)NC(=O)[C@H](C)NC(=O)[C@H](CC(N)=O)NC(=O)[C@H](CC(C)C)NC(=O)CN)C(C)C)C(=O)N[C@@H](Cc1cnc[nH]1)C(=O)N[C@@H](CCC(=O)O)C(=O)N[C@@H](C)C(=O)N[C@@H](Cc1ccccc1)C(=O)N[C@@H](CCCCN)C(=O)N[C@@H](CC(C)C)C(=O)N[C@H](C(=O)N[C@@H](CC(N)=O)C(=O)N[C@@H](CC(N)=O)C(=O)N[C@@H](Cc1cnc[nH]1)C(=O)N[C@H](C(=O)N[C@@H](CCC(N)=O)C(=O)O)C(C)C)[C@@H](C)CC [GLNALKKVFQGIHEAFKLINNHVQ]
MIC [1]: 20 µM (≈ 54.4 µg/mL)
MIC [8]: ≥ 160 µM

CC[C@H](C)[C@H](NC(=O)CNC(=O)[C@H](CCC(N)=O)NC(=O)[C@H](Cc1ccccc1)NC(=O)[C@@H](NC(=O)[C@H](CCCCN)NC(=O)[C@H](CCCCN)NC(=O)[C@H](CC(C)C)NC(=O)[C@H](C)NC(=O)[C@H](CC(N)=O)NC(=O)[C@H](CC(C)C)NC(=O)CN)C(C)C)C(=O)N[C@@H](Cc1cnc[nH]1)C(=O)N[C@@H](CCC(=O)O)C(=O)N[C@@H](C)C(=O)N[C@H](C(=O)N[C@@H](CCCCN)C(=O)N[C@@H](CC(C)C)C(=O)N[C@@H](Cc1ccccc1)C(=O)N[C@@H](CC(N)=O)C(=O)N[C@@H](CC(N)=O)C(=O)N[C@@H](Cc1cnc[nH]1)C(=O)N[C@H](C(=O)N[C@@H](CCC(N)=O)C(=O)O)C(C)C)[C@@H](C)CC [GLNALKKVFQGIHEAIKLFNNHVQ]
MIC [1]: 10 µM (≈ 27.2 µg/mL)
MIC [8]: ≥ 160 µM

CC(C)C[C@H](NC(=O)CNC(=O)[C@@H](NC(=O)[C@@H]1CCCN1C(=O)[C@H](CC(C)C)NC(=O)CNC(=O)[C@H](CC(N)=O)NC(=O)[C@H](CC(N)=O)NC(=O)[C@H](Cc1ccc(O)cc1)NC(=O)[C@@H](NC(=O)[C@H](CCCN=C(N)N)NC(=O)[C@H](CS)NC(=O)[C@H](CCCN=C(N)N)NC(=O)[C@H](Cc1cnc[nH]1)NC(=O)[C@@H](N)CCCCN)C(C)C)[C@@H](C)O)C(=O)N[C@@H](Cc1ccc(O)cc1)C(=O)N[C@@H](CCCN=C(N)N)C(=O)N[C@@H](Cc1c[nH]c2ccccc12)C(=O)N[C@@H](CS)C(N)=O [KHRCRVYNNGLPTGLYRWC]
MIC [7]: 4.8 µM (≈ 11.2 µg/mL)

CC(C)C[C@H](NC(=O)[C@H](CCCN=C(N)N)NC(=O)[C@H](CCCN=C(N)N)NC(=O)[C@H](C)NC(=O)[C@H](Cc1c[nH]c2ccccc12)NC(=O)CNC(=O)[C@H](CCCN=C(N)N)NC(=O)[C@@H](N)CCCN=C(N)N)C(=O)N[C@@H](C)C(=O)N[C@@H](Cc1ccccc1)C(=O)N[C@@H](C)C(=O)N[C@@H](Cc1ccccc1)C(=O)NCC(=O)N[C@@H](CCCN=C(N)N)C(=O)N[C@@H](CCCN=C(N)N)C(N)=O [RRGWARRLAFAFGRR]
MIC [1]: 12.5 µM and 30 µM
MIC [9]: > 30 µM
MIC [2]: 30 µM (≈ 56.3 µg/mL)
MIC [3]: 13.8 µM and 22 µM

CC(C)C[C@H](NC(=O)[C@H](C)NC(=O)[C@H](CCCCN)NC(=O)[C@H](CCCCN)NC(=O)[C@H](CC(C)C)NC(=O)[C@H](C)NC(=O)[C@H](CCCCN)NC(=O)[C@H](CCCCN)NC(=O)[C@H](CC(C)C)NC(=O)[C@H](CCCCN)NC(=O)[C@H](CCCCN)NC(=O)[C@H](CC(C)C)NC(=O)[C@H](C)NC(=O)[C@H](CCCCN)NC(=O)[C@H](CCCCN)NC(=O)[C@H](CC(C)C)NC(=O)[C@H](C)NC(=O)[C@H](CCCCN)NC(=O)[C@H](CC(C)C)NC(=O)[C@H](C)NC(=O)[C@H](CC(C)C)NC(=O)[C@H](C)NC(=O)[C@@H](N)C(C)C)C(N)=O [VALALKALKKALKKLKKALKKAL]
MIC [6]: > 80.3 µM
MIC [7]: > 80.3 µM

CC[C@H](C)[C@H](NC(=O)[C@H](CCCN=C(N)N)NC(=O)[C@H](CCCCN)NC(=O)[C@@H]1CCCN1C(=O)[C@@H]1CCCN1C(=O)[C@H](CCCN=C(N)N)NC(=O)[C@@H]1CCCN1C(=O)[C@H](CCCN=C(N)N)NC(=O)[C@@H]1CCCN1C(=O)[C@H](CC(C)C)NC(=O)[C@H](Cc1ccc(O)cc1)NC(=O)[C@@H]1CCCN1C(=O)[C@@H]1CCCN1C(=O)[C@H](CCCCN)NC(=O)[C@H](CC(=O)O)NC(=O)[C@@H](N)C(C)C)C(=O)N[C@@H](Cc1ccc(O)cc1)C(=O)N[C@@H](CC(N)=O)C(=O)N[C@@H](CCCN=C(N)N)C(N)=O [VDKPPYLPRPRPPKRIYNR]
MIC [9]: 27.1 µM (≈ 64 µg/mL)
MIC [10]: 27.1 µM (≈ 64 µg/mL)
MIC (Escherichia coli UB1005): 0.254 µM (≈ 0.6 µg/mL)

CC(C)C[C@H](NC(=O)[C@H](Cc1ccc(O)cc1)NC(=O)[C@@H]1CCCN1C(=O)[C@@H]1CCCN1C(=O)[C@H](CCCCN)NC(=O)[C@H](CC(=O)O)NC(=O)[C@@H](N)C(C)C)C(=O)N1CCC[C@H]1C(=O)N[C@@H](CCCN=C(N)N)C(=O)N1CCC[C@H]1C(=O)N[C@@H](CCCN=C(N)N)C(=O)N1CCC[C@H]1C(=O)N1CCC[C@H]1C(=O)N[C@@H](CCCN=C(N)N)C(=O)N[C@@H](CCCN=C(N)N)C(=O)N[C@@H](CCCCN)C(=O)N[C@@H](Cc1ccc(O)cc1)C(=O)N[C@@H](CC(N)=O)C(=O)N[C@@H](CCCN=C(N)N)C(N)=O [VDKPPYLPRPRPPRRKYNR]
MIC [9]: 13.3 µM (≈ 32 µg/mL)
MIC [10]: 26.6 µM (≈ 64 µg/mL)
MIC (Escherichia coli UB1005): 1.04 µM (≈ 2.5 µg/mL)
